Test results taken from the supplement of paper PMC10307832.

Legend:
Experiment in all cases: relative viability (nuclei count vs DMSO), 5 days (fraction); higher = more cells survive
[1] = compound: Cc1ccc(NC(=O)c2ccc(CN3CCN(C)CC3)cc2)cc1Nc1nccc(-c2cccnc2)n1 [Imatinib] + CC1(C)CCC(c2ccc(Cl)cc2)=C(CN2CCN(c3ccc(C(=O)NS(=O)(=O)c4ccc(N[C@H](CCN5CCOCC5)CSc5ccccc5)c(S(=O)(=O)C(F)(F)F)c4)cc3)CC2)C1 [Navitoclax] (partner 0.5 µM)
How it was run: (§1)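 The day after seeding in 1536-well plates, lung cancer cell lines were treated by pin tool with a single drug, or with a fixed anchor-drug dose together with five library-drug doses (not always all listed) in √10 steps. After 5 days, a combined fix-and-stain solution (final 0.05% Triton X-100, 1% formaldehyde, 1 ug/ml Hoechst) was added. Nuclei counted on 4× images gave relative viability as treated counts over vehicle counts, reported as the median of duplicate plates.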

[2] = compound: Cc1ccc(NC(=O)c2ccc(CN3CCN(C)CC3)cc2)cc1Nc1nccc(-c2cccnc2)n1 [Imatinib] + Cc1cc(Nc2cc(N3CCN(C)CC3)nc(Sc3ccc(NC(=O)C4CC4)cc3)n2)n[nH]1 [Tozasertib] (partner 0.1 µM)
How it was run: as §1

[3] = compound: Cc1ccc(NC(=O)c2ccc(CN3CCN(C)CC3)cc2)cc1Nc1nccc(-c2cccnc2)n1 [Imatinib] + CC(=O)c1c(C)c2cnc(Nc3ccc(N4CCNCC4)cn3)nc2n(C2CCCC2)c1=O [Palbociclib] (partner 0.5 µM)
How it was run: as §1

[4] = compound: Cc1ccc(NC(=O)c2ccc(CN3CCN(C)CC3)cc2)cc1Nc1nccc(-c2cccnc2)n1 [Imatinib] + NC(=O)Nc1cc(-c2cccc(F)c2)sc1C(=O)N[C@H]1CCCNC1 [AZD7762] (partner 0.2 µM)
How it was run: as §1

Row | Cell Line | relative viability ([1]; first compound 0.06325 µM) | relative viability ([1]; first compound 0.2 µM) | relative viability ([1]; first compound 0.6325 µM) | relative viability ([1]; first compound 2 µM) | relative viability ([2]; first compound 0.02 µM) | relative viability ([2]; first compound 0.06325 µM) | relative viability ([2]; first compound 0.2 µM) | relative viability ([2]; first compound 0.6325 µM) | relative viability ([2]; first compound 2 µM) | relative viability ([3]; first compound 0.02 µM) | relative viability ([3]; first compound 0.06325 µM) | relative viability ([3]; first compound 0.2 µM) | relative viability ([3]; first compound 0.6325 µM) | relative viability ([3]; first compound 2 µM) | relative viability ([4]; first compound 0.02 µM) | relative viability ([4]; first compound 0.06325 µM) | relative viability ([4]; first compound 0.2 µM) | relative viability ([4]; first compound 0.6325 µM) | relative viability ([4]; first compound 2 µM) | relative viability ([1]; first compound 0.02 µM)
1 | NCI-H1666 | 1.16 | 1.06 | 1.1 | 1.06 | 0.622 | 0.623 | 0.603 | 0.665 | 0.574 | 0.678 | 0.628 | 0.642 | 0.705 | 0.621 | 0.902 | 0.873 | 0.792 | 0.849 | 0.809 | 
2 | NCI-H1944 |  | 1.05 | 1.07 | 1.08 | 0.259 | 0.401 | 0.253 | 0.236 | 0.262 | 0.347 | 0.306 | 0.373 | 0.316 | 0.42 | 0.628 | 0.556 | 0.452 | 0.37 | 0.423 | 1.03
3 | LC-2-ad | 0.361 | 0.514 | 0.707 | 0.468 | 0.439 | 0.439 | 0.514 | 0.2 | 0.419 | 0.543 |  | 0.559 | 0.5 | 0.508 | 0.965 |  | 0.76 | 0.772 | 0.813 | 0.481
4 | EKVX | 0.859 | 0.983 | 0.929 | 0.973 |  | 0.389 | 0.348 | 0.287 | 0.354 | 0.377 |  | 0.384 | 0.456 |  |  |  | 0.617 | 0.723 |  | 1.18
5 | NCI-H322M | 1.26 |  | 1.17 | 1.13 | 0.483 | 0.507 | 0.491 | 0.432 | 0.471 | 0.474 | 0.518 | 0.501 | 0.423 | 0.495 | 0.565 | 0.673 | 0.529 | 0.608 | 0.586 | 1.21
6 | H3255 | 0.441 | 0.44 | 0.497 | 0.548 | 0.604 | 0.608 | 0.638 | 0.575 | 0.614 | 0.316 | 0.325 | 0.317 | 0.338 | 0.308 | 1.02 | 0.784 |  | 0.95 | 0.842 | 0.512
7 | NCI-H1395 |  | 1.04 | 0.979 | 0.989 | 0.679 | 0.773 | 0.76 | 0.663 | 0.7 | 0.622 |  | 0.579 | 0.526 | 0.589 | 0.369 |  | 0.343 | 0.376 | 0.393 | 1.07
8 | NCI-H441 | 0.675 | 0.606 | 0.612 | 0.572 | 0.58 | 0.644 | 0.667 | 0.612 | 0.412 | 0.22 | 0.213 | 0.229 | 0.229 | 0.233 | 1.34 | 1.34 | 1.17 | 1.1 | 1.08 | 0.647
9 | NCI-H2405 |  | 0.845 | 0.706 |  | 0.7 |  | 0.767 | 0.671 | 0.609 | 0.534 | 0.57 | 0.533 | 0.493 | 0.572 | 0.813 | 0.791 | 0.706 | 0.635 | 0.651 | 0.984
10 | LOU-NH91 |  | 0.654 | 0.569 | 0.613 | 0.636 | 0.833 | 0.761 | 0.596 | 0.667 | 0.524 | 0.543 | 0.547 | 0.572 | 0.496 | 0.784 | 0.829 | 0.81 | 0.809 | 0.749 | 0.76
11 | HCC-44 | 1.05 | 1.03 | 0.858 | 0.866 | 1.03 | 0.558 | 1.01 | 0.109 | 0.735 | 0.976 |  | 1.1 |  | 0.885 |  |  | 1.13 | 1.01 | 0.968 | 1.11
12 | NCI-H1437 | 1.17 | 1.34 | 1.08 | 1.04 | 0.449 | 0.453 | 0.411 | 0.408 | 0.373 | 0.329 | 0.288 | 0.324 | 0.343 | 0.266 | 1.24 | 1.07 | 1.09 | 1.04 | 1.14 | 1.24
13 | ChaGo-K-1 | 0.927 |  | 1.37 | 1.09 | 0.223 | 0.189 | 0.208 | 0.185 | 0.21 | 0.988 |  | 0.982 | 0.871 | 0.879 | 0.979 |  | 0.941 | 0.791 | 0.943 | 1.04
14 | NCI-H1975 | 1.27 | 1.22 | 1.03 | 1.13 | 0.976 | 0.774 | 0.493 | 0.255 | 0.188 | 0.662 | 0.49 | 0.566 | 0.631 | 0.563 | 0.754 | 0.701 | 0.646 | 0.652 | 0.646 | 1.11
15 | NCI-H1651 | 1.21 |  | 1.05 | 1.13 | 0.796 | 0.659 | 0.649 | 0.535 | 0.436 | 0.478 | 0.543 | 0.564 | 0.492 | 0.543 | 0.543 | 0.267 | 0.488 | 0.468 | 0.403 | 1.34
16 | NCI-H23 | 0.916 | 1.1 | 0.738 | 0.87 | 0.441 | 0.37 | 0.322 | 0.285 | 0.269 | 0.455 | 0.66 | 0.521 | 0.467 | 0.479 | 0.27 | 0.285 | 0.23 | 0.203 | 0.21 | 1.04
